Assay results: patent US9492460B2, “Carbazole compounds useful as bromodomain inhibitors” (Bristol-Myers Squibb Company, priority 2013, dated 2016)
Values belong to the compound of their own block, whether it stands above or below them.

Biological target: T1, bromodomain BRD4 (44-168), BRD4 (333-460), and BRD4 (1-477 or 44-460) (Homo sapiens, UniProt O60885)
T1 construct: BRD4(44-168), BRD4(333-460), BRD4(44-460), BRD4(1-477), O60885-1; fused on or other part: N-terminal BirA biotinylation motif, biotinylated; The TVMV-cleavable His6 tag is removed, except in some BRD4(44-460) runs detected with anti-His terbium cryptate
Test: Time Resolved Fluorescence Resonance Energy Transfer (TR-FRET) binding assay
Conditions: one of the FRET assays described

SMILES: Cc1cccc(Cn2c3ccc(C(=O)N4CC(C)OC(C)C4)cc3c3ccc(-c4c(C)noc4C)cc32)c1 (stereo not drawn) [Example 20]
IC50: < 500 nM

SMILES: Cc1ccc(Cn2c3ccc(C(=O)N4CC(C)OC(C)C4)cc3c3ccc(-c4c(C)noc4C)cc32)cc1 (stereo not drawn) [Example 21]
IC50: < 500 nM

SMILES: Cc1noc(C)c1-c1ccc2c3cc(C(=O)N4CCOCC4)ccc3n(CC3CC3)c2c1 [Example 22, 9-(cyclopropylmethyl)-2-(3,5-dimethyl-4-isoxazolyl)-6-(4-morpholinylcarbonyl)-9H-carbazole]
IC50: < 500 nM

SMILES: Cc1noc(C)c1-c1ccc2c3cc(C(=O)N4C[C@@H](C)O[C@@H](C)C4)ccc3n(S(C)(=O)=O)c2c1 [Example 23, 2-(3,5-dimethyl-4-isoxazolyl)-6-((cis-2,6-dimethyl-4-morpholinyl)carbonyl)-9-(methylsulfonyl)-9H-carbazole]
IC50: < 7500 nM

SMILES: Cc1noc(C)c1-c1ccc2c3cc(C(=O)N4C[C@@H](C)O[C@@H](C)C4)ccc3n(C(=O)c3ccccc3)c2c1 [Example 24, 9-benzoyl-2-(3,5-dimethyl-4-isoxazolyl)-6-((cis-2,6-dimethyl-4-morpholinyl)carbonyl)-9H-carbazole]
IC50: < 500 nM

SMILES: Cc1noc(C)c1-c1cc(C(N)=O)c2c(c1)[nH]c1ccc(C(=O)N3C[C@@H](C)O[C@@H](C)C3)cc12 [Example 25, 2-(3,5-dimethyl-4-isoxazolyl)-6-((cis-2,6-dimethyl-4-morpholinyl)carbonyl)-9H-carbazole-4-carboxamide]
IC50: < 500 nM

SMILES: Cc1noc(C)c1-c1cc(C(N)=O)c2c3cc(C(=O)N4CC(C)OC(C)C4)ccc3n(Cc3ncco3)c2c1 (stereo not drawn) [Example 29]
IC50: < 500 nM

SMILES: Cc1noc(C)c1-c1cc(C(N)=O)c2c3cc(C(=O)N4CC(C)OC(C)C4)ccc3n(Cc3ccncn3)c2c1 (stereo not drawn) [Example 38]
IC50: < 500 nM

SMILES: Cc1noc(C)c1-c1cc(C(N)=O)c2c3cc(C(=O)N4C[C@@H](C)O[C@@H](C)C4)ccc3n(S(=O)(=O)c3ccccc3)c2c1 [Example 45, 2-(3,5-dimethylisoxazol-4-yl)-6-(cis-2,6-dimethylmorpholine-4-carbonyl)-9-(phenylsulfonyl)-9H-carbazole-4-carboxamide]
IC50: < 7500 nM

SMILES: Cc1noc(C)c1-c1cc(C(N)=O)c2c3cc(C(=O)N4C[C@@H](C)O[C@@H](C)C4)ccc3n(C(=O)c3ccccc3)c2c1 [Example 46, 9-benzoyl-2-(3,5-dimethylisoxazol-4-yl)-6-(cis-2,6-dimethylmorpholine-4-carbonyl)-9H-carbazole-4-carboxamide]
IC50: < 500 nM

SMILES: Cc1noc(C)c1-c1cc(C(N)=O)c2c3cc(C(=O)N4CCOCC4)ccc3n(Cc3ccccc3)c2c1 [Example 47, 9-benzyl-2-(3,5-dimethyl-4-isoxazolyl)-6-(4-morpholinylcarbonyl)-9H-carbazole-4-carboxamide]
IC50: < 50 nM

SMILES: Cc1noc(C)c1-c1cc(C(N)=O)c2c3cc(C(=O)N(C)C)ccc3n(Cc3ccccc3)c2c1 [Example 48]
IC50: < 50 nM

SMILES: Cc1noc(C)c1-c1cc(C(N)=O)c2c3cc(C(=O)N4CCOCC4(C)C)ccc3n(Cc3ccccc3)c2c1 [Example 49]
IC50: < 7500 nM

SMILES: CCC1CCN(C(=O)c2ccc3c(c2)c2c(C(N)=O)cc(-c4c(C)noc4C)cc2n3Cc2ccccc2)CC1 [Example 50]
IC50: < 50 nM

SMILES: Cc1noc(C)c1-c1cc(C(N)=O)c2c3cc(C(=O)N4CCC(C)(O)CC4)ccc3n(Cc3ccccc3)c2c1 [Example 51]
IC50: < 50 nM

SMILES: COC1CN(C(=O)c2ccc3c(c2)c2c(C(N)=O)cc(-c4c(C)noc4C)cc2n3Cc2ccccc2)C1 [Example 52]
IC50: < 50 nM

SMILES: Cc1noc(C)c1-c1cc(C(N)=O)c2c3cc(C(=O)N4CC(O)C4)ccc3n(Cc3ccccc3)c2c1 [Example 53]
IC50: < 50 nM

SMILES: Cc1noc(C)c1-c1cc(C(N)=O)c2c3cc(C(=O)N4CCC4C)ccc3n(Cc3ccccc3)c2c1 (stereo not drawn) [Example 54]
IC50: < 50 nM

SMILES: Cc1noc(C)c1-c1cc(C(N)=O)c2c3cc(C(=O)N4CCOC(C)C4)ccc3n(Cc3ccccc3)c2c1 (stereo not drawn) [Example 55]
IC50: < 50 nM

SMILES: Cc1noc(C)c1-c1cc(C(N)=O)c2c3cc(C(=O)N4CCCOCC4)ccc3n(Cc3ccccc3)c2c1 [Example 56]
IC50: < 50 nM

SMILES: Cc1noc(C)c1-c1cc(C(N)=O)c2c3cc(C(=O)N4CCO[C@@H](C)C4)ccc3n(Cc3ccccc3)c2c1 [Example 57]
IC50: < 50 nM

SMILES: Cc1noc(C)c1-c1cc(C(N)=O)c2c3cc(C(=O)N4CCC(C)(C)C4)ccc3n(Cc3ccccc3)c2c1 [Example 58]
IC50: < 50 nM

SMILES: Cc1noc(C)c1-c1cc(C(N)=O)c2c3cc(C(=O)N4CC[C@H](F)C4)ccc3n(Cc3ccccc3)c2c1 [Example 59]
IC50: < 50 nM

SMILES: Cc1noc(C)c1-c1cc(C(N)=O)c2c3cc(C(=O)N4CC[C@@H](F)C4)ccc3n(Cc3ccccc3)c2c1 [Example 60]
IC50: < 50 nM

SMILES: Cc1noc(C)c1-c1cc(C(N)=O)c2c3cc(C(=O)N4CCC(F)(F)C4)ccc3n(Cc3ccccc3)c2c1 [Example 61]
IC50: < 50 nM

SMILES: Cc1noc(C)c1-c1cc(C(N)=O)c2c3cc(C(=O)N4CCO[C@H](C)C4)ccc3n(Cc3ccccc3)c2c1 [Example 62]
IC50: < 50 nM

SMILES: Cc1noc(C)c1-c1cc(C(N)=O)c2c3cc(C(=O)N4C(C)(C)CC(O)CC4(C)C)ccc3n(Cc3ccccc3)c2c1 [Example 63]
IC50: < 50 nM

SMILES: Cc1noc(C)c1-c1cc(C(N)=O)c2c3cc(C(=O)N4CC(F)C4)ccc3n(Cc3ccccc3)c2c1 [Example 65]
IC50: < 50 nM

SMILES: Cc1noc(C)c1-c1cc(C(N)=O)c2c3cc(C(=O)N4CCCC4)ccc3n(Cc3ccccc3)c2c1 [Example 66]
IC50: < 50 nM

SMILES: Cc1noc(C)c1-c1cc(C(N)=O)c2c3cc(C(=O)N4CCC(O)CC4)ccc3n(Cc3ccccc3)c2c1 [Example 67]
IC50: < 50 nM

SMILES: Cc1noc(C)c1-c1cc(C(N)=O)c2c3cc(C(=O)N4CCC(CO)CC4)ccc3n(Cc3ccccc3)c2c1 [Example 68]
IC50: < 50 nM

SMILES: Cc1noc(C)c1-c1cc(C(N)=O)c2c3cc(C(=O)N4CC(C)OC(C)C4)ccc3n(Cc3ccccc3)c2c1 (stereo not drawn) [Example 69]
IC50: < 50 nM

SMILES: COC1CCN(C(=O)c2ccc3c(c2)c2c(C(N)=O)cc(-c4c(C)noc4C)cc2n3Cc2ccccc2)CC1 [Example 70]
IC50: < 50 nM

SMILES: Cc1noc(C)c1-c1cc(C(N)=O)c2c3cc(C(=O)N4CCC4)ccc3n(Cc3ccccc3)c2c1 [Example 71]
IC50: < 50 nM

SMILES: Cc1noc(C)c1-c1cc(C(N)=O)c2c3cc(C(=O)N4CCCC(C)(C)C4)ccc3n(Cc3ccccc3)c2c1 [Example 72]
IC50: < 50 nM

SMILES: Cc1noc(C)c1-c1cc(C(N)=O)c2c3cc(C(=O)N4CCCCC4C)ccc3n(Cc3ccccc3)c2c1 (stereo not drawn) [Example 73]
IC50: < 50 nM

SMILES: Cc1noc(C)c1-c1cc(C(N)=O)c2c3cc(C(=O)N4CCC(C)CC4)ccc3n(Cc3ccccc3)c2c1 [Example 74]
IC50: < 50 nM

SMILES: Cc1noc(C)c1-c1cc(C(N)=O)c2c3cc(C(=O)NCCN4CCOCC4)ccc3n(Cc3ccccc3)c2c1 [Example 76]
IC50: < 50 nM

SMILES: Cc1noc(C)c1-c1cc(C(N)=O)c2c3cc(C(=O)N4COCC4(C)C)ccc3n(Cc3ccccc3)c2c1 [Example 77]
IC50: < 50 nM

SMILES: Cc1noc(C)c1-c1cc(C(N)=O)c2c3cc(C(=O)N4CC(F)(F)C4)ccc3n(Cc3ccccc3)c2c1 [Example 78]
IC50: < 50 nM

The next lines start with the values.

IC50: < 50 nM
SMILES: Cc1noc(C)c1-c1cc(C(N)=O)c2c3cc(C(=O)N4C[C@@H](C)O[C@@H](C)C4)ccc3n(CC3CCC3)c2c1 [Example 26, 9-(cyclobutylmethyl)-2-(3,5-dimethyl-4-isoxazolyl)-6-((cis-2,6-dimethyl-4-morpholinyl)carbonyl)-9H-carbazole-4-carboxamide]

IC50: < 50 nM
SMILES: Cc1noc(C)c1-c1cc(C(N)=O)c2c3cc(C(=O)N4CC(C)OC(C)C4)ccc3n(Cc3cscn3)c2c1 (stereo not drawn) [Example 27]

IC50: < 50 nM
SMILES: Cc1csc(Cn2c3ccc(C(=O)N4CC(C)OC(C)C4)cc3c3c(C(N)=O)cc(-c4c(C)noc4C)cc32)n1 (stereo not drawn) [Example 28]

IC50: < 50 nM
SMILES: Cc1noc(C)c1-c1cc(C(N)=O)c2c3cc(C(=O)N4CC(C)OC(C)C4)ccc3n(Cc3nccs3)c2c1 (stereo not drawn) [Example 30]

IC50: < 50 nM
SMILES: Cc1noc(C)c1-c1cc(C(N)=O)c2c3cc(C(=O)N4CC(C)OC(C)C4)ccc3n(Cc3ccccc3F)c2c1 (stereo not drawn) [Example 31]

IC50: < 50 nM
SMILES: Cc1noc(C)c1-c1cc(C(N)=O)c2c3cc(C(=O)N4CC(C)OC(C)C4)ccc3n(Cc3ccc(F)cc3)c2c1 (stereo not drawn) [Example 32]

IC50: < 50 nM
SMILES: Cc1noc(C)c1-c1cc(C(N)=O)c2c3cc(C(=O)N4CC(C)OC(C)C4)ccc3n(Cc3ccccc3Cl)c2c1 (stereo not drawn) [Example 33]

IC50: < 50 nM
SMILES: Cc1noc(C)c1-c1cc(C(N)=O)c2c3cc(C(=O)N4CC(C)OC(C)C4)ccc3n(Cc3cccc(Cl)c3)c2c1 (stereo not drawn) [Example 34]

IC50: < 50 nM
SMILES: Cc1noc(C)c1-c1cc(C(N)=O)c2c3cc(C(=O)N4CC(C)OC(C)C4)ccc3n(Cc3ccc(Cl)cc3)c2c1 (stereo not drawn) [Example 35]

IC50: < 50 nM
SMILES: Cc1noc(C)c1-c1cc(C(N)=O)c2c3cc(C(=O)N4CC(C)OC(C)C4)ccc3n(Cc3ccc(F)cc3F)c2c1 (stereo not drawn) [Example 36]

IC50: < 50 nM
SMILES: Cc1noc(C)c1-c1cc(C(N)=O)c2c3cc(C(=O)N4CC(C)OC(C)C4)ccc3n(Cc3ccc(C#N)cc3)c2c1 (stereo not drawn) [Example 37]

IC50: < 50 nM
SMILES: Cc1noc(C)c1-c1cc(C(N)=O)c2c3cc(C(=O)N4CC(C)OC(C)C4)ccc3n(C(C)c3ccccc3)c2c1 (stereo not drawn) [Example 39]

IC50: < 50 nM
SMILES: COc1ccccc1Cn1c2ccc(C(=O)N3CC(C)OC(C)C3)cc2c2c(C(N)=O)cc(-c3c(C)noc3C)cc21 (stereo not drawn) [Example 40]

IC50: < 50 nM
SMILES: Cc1noc(C)c1-c1cc(C(N)=O)c2c3cc(C(=O)N4CC(C)OC(C)C4)ccc3n(Cc3cccc(F)c3F)c2c1 (stereo not drawn) [Example 41]

IC50: < 50 nM
SMILES: Cc1noc(C)c1-c1cc(C(N)=O)c2c3cc(C(=O)N4CC(C)OC(C)C4)ccc3n(Cc3cc(F)ccc3F)c2c1 (stereo not drawn) [Example 42]

IC50: < 50 nM
SMILES: Cc1noc(C)c1-c1cc(C(N)=O)c2c3cc(C(=O)N4CC(C)OC(C)C4)ccc3n(Cc3ccccc3C#N)c2c1 (stereo not drawn) [Example 43]

IC50: < 50 nM
SMILES: Cc1noc(C)c1-c1cc(C(N)=O)c2c3cc(C(=O)N4CC(C)OC(C)C4)ccc3n(Cc3cccc(C#N)c3)c2c1 (stereo not drawn) [Example 44]
